Laboratory results taken from patent US20240261258A1, “Presurgical Perineural Administration of Resiniferatoxin For Reduction of Post-Operative Pain” (Sorrento Therapeutics, Inc., priority 2021, published 2024).

Columns and labels:
Format in all cases: in vivo, dog
[1] = test system: healthy dogs undergoing TPLO surgery; test: Post-surgical evaluations (weight bearing, withdrawal reflex, proprioception, VAS, GCPS, injection and surgical site)
From the text: Before the subjects underwent surgery, baseline data including a physical examination, hindlimb motor evaluation, hindlimb sensory evaluation, site of injection evaluation, and surgical site evaluation were collected. During the 8-week post-operative follow-up period on day 1, 2, 3, 14, 28, and 56 all the above parameters were reevaluated by a researcher who was blinded to the treatment.
After observing the animal in its cage and after evaluating the subject walking, the overall pain was scored using a visual analog scale (VAS) and the short form of the Glasgow composite pain scale (GCPS). The VAS consisted of a straight line 10 cm long with the left end, 0 cm, indicating no pain and the right end, 10 cm, indicating unbearable pain. The user placed a mark on the line that best represented the intensity of the subject's pain. Animals with a VAS greater than 4 cm and a GCPS greater that 6 were considered painful and received intramuscular hydromorphone at 0.1 mg/kg.
The injection site of RTX or local anesthetic was evaluated by visual examination (normal, red, swollen) and palpation (no pain, mild, severe). The surgical site was evaluated by visual examination (normal, red, swollen) and with the aid of an algometer. With the dog in lateral recumbency, the tip of the algometer was placed on the surgical site and pressure was manually applied until the animal moved the leg. During the baseline data collection, several measurements were taken until 3 measurements were within ±1 Newton (N). The number recorded corresponded to the average of these 3 values. After surgery, the force was applied only once. Data were collected from both the left (treated) and the right (non-treated) hindlimbs.
The withdrawal reflex and proprioception were assessed and scored as normal, decreased, or absent. The motor function was evaluated by encouraging the dog to stand and walk. Weight bearing standing and walking was scored as: normal, decreased (dog uses the leg but prefers the non-operated leg), or absent (dog avoids using the operated leg).

[2] = test system: stifle of dogs after TPLO; test: Radiographic, CT and MRI evaluation of bone healing; details: for Pattern of healing N (no findings), No. of Dogs / Pattern of healing S (soft tissue swelling with normal bone healing), No. of Dogs / Pattern of healing S&B (soft tissue swelling and delayed bone healing), No. of Dogs: 4 dogs
Protocol: Radiographs of the stifle were performed before surgery, the day after surgery, at day 28, and at day 56. Dogs were sedated to allow for correct positioning of the leg and to minimize stress from handling. Standardized TPLO views (lateral and caudal-cranial) were acquired. An MRI and CT were also performed on the operated leg after the animals were euthanized and the surgical plate was removed (day 56).
Orthogonal plane radiographs of the stifle were obtained for all dogs at all timepoints. After euthanasia, CT was obtained in 11 of the 14 dogs and MRI in all dogs. Metal artifact due to the presence of a broken screw prevented the evaluation of one MR study. Soft tissues could not be reliably assessed due to disruption secondary to removal of the plate. There was no evidence of implant failure or suboptimal osteotomy repair in any dog. Upon review of all imaging modalities, three patterns of healing emerged (Table 9a).
The delay of bone healing refers to a slower bone healing process as compared to the findings in the rest of the dogs in this study. This is not to be considered as an absolute delayed bone healing since the dogs were only enrolled in the study for 56 days

[3] = test system: CGRP immunopositive axons of sciatic and femoral nerves; test: Quantification of CGRP immunopositive nerve fibers
Protocol: FIGS. 1A-J show density of CGRP immunopositive axons in representative confocal images of ipsilateral (left; A-D) and contralateral (right; E-H) sciatic nerve from dogs post-TPLO and after different treatment and doses of RTX. Each bar represents the mean±SEM. Data were analyzed by one-way ANOVA followed by Tukey post hoc test; *p<0.05. FIGS. 1I-J are bar graphs of the density of CGRP immunopositive axons, (density of nerve fibers in mm/mm3) in ipsilateral (I) and contralateral (J) sciatic nerves as measured in n subjects in each group.
FIGS. 3A-J show CGRP immunopositive axon density in representative confocal images of ipsilateral (left; A-D) and contralateral (right; E-H) femoral nerve from dogs post-TPLO surgery and after different treatment and doses of RTX. Each bar represents the mean±SEM. Data were analyzed by one-way ANOVA followed by Tukey post hoc test; *p<0.05. FIGS. 3I-J are bar graphs of the density of CGRP immunopositive axons (density of nerve fibers in mm/mm3) in ipsilateral (I), and contralateral (J) femoral nerves as measured in n subjects in each group.
The effects of different routes of administration and/or different doses of RTX on the density of CGRP immunopositive axons in the ipsilateral (left) and contralateral (right) sciatic nerves are shown in FIG. 1. […] However, statistical significance was observed only with the dose of 12.5 μg (25 μg total; p=0.0184) per nerve of RTX. FIGS. 1E-H show the effect of different treatment and doses of RTX on the density of CGRP nerve axons innervating the contralateral (right) sciatic nerve from animals post-TPLO.

[4] = Group 1 High, 25 μg total F/Sc nerve block
[5] = Group 2 Low, 6.25 μg total F/Sc nerve block
[6] = all subjects and timepoints, cutoff for painful

Structure (SMILES): C=C(C)[C@]12C[C@@H](C)[C@@]34O[C@](Cc5ccccc5)(O[C@@H]1[C@@H]3C=C(COC(=O)Cc1ccc(O)c(OC)c1)C[C@]1(O)C(=O)C(C)=C[C@@H]41)O2 [RTX, resiniferatoxin]
- Use of leg within 2 hours of surgery: Intermittent toe touching (dogs/group) [1, 4]: touching: 2/4
- Use of leg within 2 hours of surgery: Normal (dogs/group) [1, 4]: Normal: 2/4
- Use of leg within 2 hours of surgery: Absent (dogs/group) [1, 5]: Absent: 1/4
- Use of leg within 2 hours of surgery: Intermittent toe touching (dogs/group) [1, 5]: touching: 3/4;
- Use of leg within 2 hours of surgery: Absent (dogs/group) ([1]; Group 3 Local, 50 μg on bone incision + 5 mg bupivacaine block): Absent: 4/4
- Injection site finding in one subject ([1]; a subject in group 1, both resolved within 24 hours): minimal reaction upon palpation at day 1 and a small red area at day 3
- Injection site finding in one subject ([1]; a subject in group 3): small non-painful red area at day 14
- Injection site appearance ([1]; all animals): normal
- Withdrawal reflex ([1]; all dogs at all time points): normal
- Time for redness and swollen areas around the surgical incision to resolve ([1]; all dogs, regardless of group, after surgery): 2 to 3 days
- GCPS (short form Glasgow composite pain scale) score [1, 6]: < 6
- VAS pain score [1, 6]: < 4 cm
- Weight bearing scores ([1]; day 14, 28, and 56, all dogs except for one in group 2 (interdigital cyst)): normal scores
- Efficacy on post-operative pain ([1]; perineural injection at 6.25 μg and 25 μg RTX total in dogs undergoing TPLO surgery): short-term efficacy in treating post-operative pain
- Pattern of healing N (no findings), No. of Dogs ([2]; Group 1 (high dose)): 1
- Pattern of healing S (soft tissue swelling with normal bone healing), No. of Dogs ([2]; Group 1 (high dose)): 2
- Pattern of healing S&B (soft tissue swelling and delayed bone healing), No. of Dogs ([2]; Group 1 (high dose)): 1
- Pattern of healing N (no findings), No. of Dogs ([2]; Group 2 (low dose)): 2
- Pattern of healing S (soft tissue swelling with normal bone healing), No. of Dogs ([2]; Group 2 (low dose)): 1
- Pattern of healing S&B (soft tissue swelling and delayed bone healing), No. of Dogs ([2]; Group 2 (low dose)): 1
- Pattern of healing N (no findings), No. of Dogs ([2]; Group 3 (local)): 1
- Pattern of healing S (soft tissue swelling with normal bone healing), No. of Dogs ([2]; Group 3 (local)): 1
- Pattern of healing S&B (soft tissue swelling and delayed bone healing), No. of Dogs ([2]; Group 3 (local)): 2
- Effect on the bone healing process ([2]; distribution of healing patterns among the treatment groups): did not adversely affect the bone healing process
- Density of CGRP nerve axons in the contralateral sciatic nerve vs control treatment ([3]; RTX treated groups, p=0.9565, p=0.7911, p=0.7229): no differences
- Density of CGRP nerve axons in the contralateral femoral nerve vs control treatment ([3]; any RTX treatment, p=0.9914, p>0.9999, p=0.1760): did not statistically reduce
- Density of CGRP nerve axons in the ipsilateral sciatic nerve vs control treatment ([3]; local administration (50 μg), not statistically significant): reduced the density of CGRP nerve axons
- Density of CGRP nerve axons in the ipsilateral sciatic nerve vs control treatment ([3]; peri-neural 3.12 μg per nerve (6.25 μg total), not statistically significant): reduced the density of CGRP nerve axons
- Density of CGRP nerve axons in the ipsilateral femoral nerve ([3]; peri-neural 12.5 μg per nerve (25 μg total), p=0.0125): statistically reduced
- Density of CGRP nerve axons in the ipsilateral sciatic nerve vs control treatment ([3]; peri-neural 12.5 μg per nerve (25 μg total), statistically significant, p=0.0184): reduced the density of CGRP nerve axons
